Reference: ChEMBL document CHEMBL4376816, “Discovery of the Oral Leukotriene C4 Synthase Inhibitor (1S,2S)-2-({5-[(5-Chloro-2,4-difluorophenyl)(2-fluoro-2-methylpropyl)amino]-3-methoxypyrazin-2-yl}carbonyl)cyclopropanecarboxylic Acid (AZD9898) as a New Treatment for Asthma” (J Med Chem, 2019)
≈ marks a conversion by molar mass, not a printed value. Each block holds one compound with its values, some of them ahead of it. Calls of active or inactive are those of the source. The calls are words filed in the database; no cut-off is given here.

Columns and labels:
Leukotriene C4 synthase = molecular target: T1, Leukotriene C4 synthase (Homo sapiens, UniProt Q16873)
T1 sequence (Q16873 whole entry): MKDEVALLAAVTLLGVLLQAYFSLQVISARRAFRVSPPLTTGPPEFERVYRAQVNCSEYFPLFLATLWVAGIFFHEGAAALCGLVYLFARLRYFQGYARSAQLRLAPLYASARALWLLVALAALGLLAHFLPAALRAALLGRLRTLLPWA

[1] = molecular target: T2, Leukotriene C4 synthase (Homo sapiens) (UniProt Q16873); assay: Inhibition of LTC4S in asthmatic human whole blood assessed as inhibition of calcium ionophore A23187 stimulated cysteinyl leukotrienes production preincuabted for 30 mins followed by calcium ionophore stimulation and measured after 10 mins by LC-MS analysis; type: tissue-based
T2 sequence (whole entry): T1 sequence (Q16873 whole entry)

[2] = molecular target: T2, Leukotriene C4 synthase (Homo sapiens); assay: Inhibition of LTC4S in healthy human whole blood assessed as inhibition of calcium ionophore A23187 stimulated cysteinyl leukotrienes production preincuabted for 30 mins followed by calcium ionophore stimulation and measured after 10 mins by LC-MS analysis; type: tissue-based
Cytochrome P450 1A2 = molecular target: T3, Cytochrome P450 1A2 (Homo sapiens, UniProt P05177); assay: Inhibition of recombinant human CYP1A2 using coumarin based substrate by fluorescence assay; type: ADME
T3 sequence (P05177 whole entry): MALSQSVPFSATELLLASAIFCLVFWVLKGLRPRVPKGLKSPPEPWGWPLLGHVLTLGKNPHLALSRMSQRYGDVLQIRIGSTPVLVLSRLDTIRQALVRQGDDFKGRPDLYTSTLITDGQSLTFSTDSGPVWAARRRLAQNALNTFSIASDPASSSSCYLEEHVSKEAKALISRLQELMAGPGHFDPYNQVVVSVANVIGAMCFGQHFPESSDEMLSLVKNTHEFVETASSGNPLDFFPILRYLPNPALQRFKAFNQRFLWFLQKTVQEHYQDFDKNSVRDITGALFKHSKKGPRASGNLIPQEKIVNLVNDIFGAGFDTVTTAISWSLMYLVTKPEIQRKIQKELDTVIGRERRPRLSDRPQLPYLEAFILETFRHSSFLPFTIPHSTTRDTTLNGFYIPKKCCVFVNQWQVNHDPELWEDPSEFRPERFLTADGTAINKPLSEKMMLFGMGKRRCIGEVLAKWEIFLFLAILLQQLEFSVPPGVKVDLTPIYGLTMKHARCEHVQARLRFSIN

[3] = Clearance in Beagle dog at 1 mg/kg, iv infusion or 2 mg/kg, po via gavage after 48 hrs; type: ADME, organism-based, Canis lupus familiaris; details: in vivo
[4] = Fraction unbound in human plasma by equilibrium dialysis based LC-MS analysis; type: ADME, cell-free
Cytochrome P450 2D6 = Cytochrome P450 2D6 (Homo sapiens, UniProt P10635); assay: Inhibition of recombinant human CYP2D6 using coumarin based substrate by fluorescence assay; type: ADME
[5] = Fraction unbound in Sprague-Dawley rat plasma by equilibrium dialysis based LC-MS analysis; type: ADME, cell-free
Cytochrome P450 2C9 = Cytochrome P450 2C9 (Homo sapiens, UniProt P11712); assay: Inhibition of recombinant human CYP2C9 expressed in Escherichia coli using coumarin based substrate by fluorescence assay; type: ADME
[6] = Clearance in Han Wistar rat at 0.5 mg/kg, iv or 1 mg/kg, po after 24 hrs; type: ADME, organism-based; details: in vivo
[7] = Volume of distribution at steady state in Han Wistar rat at 0.5 mg/kg, iv or 1 mg/kg, po after 24 hrs; type: ADME, organism-based; details: in vivo, read-out: Vdss
[8] = Intrinsic clearance in human hepatocytes at 1 uM assessed as per million cells after 2 to 60 mins by LC-MS/MS analysis; type: ADME, cell-based, Hepatocyte; details: read-out: CLH
[9] = Effective half life in Han Wistar rat at 0.5 mg/kg, iv or 1 mg/kg, po after 24 hrs; type: ADME, organism-based; details: in vivo, read-out: t1/2eff (converted)
[10] = AUC in po dosed rat at LOAEL measured after 7 days; type: ADME, organism-based; details: in vivo
[11] = AUC in po dosed rat at NOAEL measured after 7 days; type: ADME, organism-based; details: in vivo
Cytochrome P450 3A4 = Cytochrome P450 3A4 (Homo sapiens, UniProt P08684); assay: Inhibition of recombinant human CYP3A4 expressed in Escherichia coli using coumarin based substrate by fluorescence assay; type: ADME
[12] = Toxicity in rat assessed as unilateral sperm granuloma at 300 mg/kg, po after 7 days; type: organism-based; details: in vivo
Cytochrome P450 2C19 = Cytochrome P450 2C19 (Homo sapiens, UniProt P33261); assay: Inhibition of recombinant human CYP2C19 using coumarin based substrate by fluorescence assay; type: ADME
[13] = Oral bioavailability in Beagle dog at 2 mg/kg via gavage after 48 hrs; type: ADME, organism-based, Canis lupus familiaris; details: in vivo
[14] = Toxicity in rat assessed as sperm granuloma at 300 mg/kg, po after 7 days; type: organism-based; details: in vivo
[15] = Octanol/Sodium phosphate buffer partition coefficient, log D of compound at pH 7.4 at 1 mg incubated for overnight under shaking condition by LC-MS/MS analysis; type: physicochemical
[16] = Apparent permeability across apical to basolateral side in human Caco2 cells; details: Caco-2
[17] = molecular target: T4, Solute carrier organic anion transporter family member 1B1 (Homo sapiens, UniProt Q9Y6L6); assay: Inhibition of OATP1B1 (unknown origin) expressed in HEK293 cells measured after 0.5 to 20 mins by scintillation counting analysis; type: ADME, cell-based
T4 sequence (Q9Y6L6 whole entry): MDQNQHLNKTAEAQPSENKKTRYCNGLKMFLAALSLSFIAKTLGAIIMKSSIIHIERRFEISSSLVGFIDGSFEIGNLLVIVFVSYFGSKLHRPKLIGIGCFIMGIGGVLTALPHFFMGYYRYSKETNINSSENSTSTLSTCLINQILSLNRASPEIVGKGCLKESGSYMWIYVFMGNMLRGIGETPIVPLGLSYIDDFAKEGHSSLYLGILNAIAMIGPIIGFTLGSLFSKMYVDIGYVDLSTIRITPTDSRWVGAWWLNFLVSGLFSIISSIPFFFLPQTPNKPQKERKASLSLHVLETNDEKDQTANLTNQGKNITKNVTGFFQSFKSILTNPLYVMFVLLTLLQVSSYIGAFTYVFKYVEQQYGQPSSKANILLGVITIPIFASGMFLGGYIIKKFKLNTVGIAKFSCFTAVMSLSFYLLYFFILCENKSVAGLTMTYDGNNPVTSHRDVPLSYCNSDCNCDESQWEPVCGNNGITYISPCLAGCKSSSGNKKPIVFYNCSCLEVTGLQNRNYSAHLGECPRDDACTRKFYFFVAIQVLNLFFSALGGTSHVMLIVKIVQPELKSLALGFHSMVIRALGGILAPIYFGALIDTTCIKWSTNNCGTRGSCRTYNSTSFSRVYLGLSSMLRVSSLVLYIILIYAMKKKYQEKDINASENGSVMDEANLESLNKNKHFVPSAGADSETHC

[18] = Toxicity in rat assessed as bilirubinemia at 300 mg/kg, po after 7 days; type: organism-based; details: in vivo
[19] = Oral bioavailability in Han Wistar rat at 1 mg/kg after 24 hrs; type: ADME, organism-based; details: in vivo
[20] = Effective half life in Beagle dog at 1 mg/kg, iv infusion or 2 mg/kg, po via gavage after 48 hrs; type: ADME, organism-based, Canis lupus familiaris; details: in vivo, read-out: t1/2eff (converted)
[21] = Cmax in po dosed rat at NOAEL measured after 7 days; type: ADME, organism-based; set-up: route oral; details: in vivo
Rattus norvegicus = assay: In vivo inhibition of LTC4S in po dosed Sprague-Dawley rat assessed as unbound drug concentration required for inhibition of calcium ionophore A23187-induced cysteinyl leukotrienes production in BAL fluid by LC-MS/MS analysis; type: functional
[22] = Toxicity in rat assessed as liver hypertrophy at 300 mg/kg, po after 7 days; type: organism-based; details: in vivo
[23] = Volume of distribution at steady state in Beagle dog at 1 mg/kg, iv infusion or 2 mg/kg, po via gavage after 48 hrs; type: ADME, organism-based, Canis lupus familiaris; details: in vivo, read-out: Vdss
[24] = Cmax in po dosed rat at LOAEL measured after 7 days; type: ADME, organism-based; set-up: route oral; details: in vivo
[25] = molecular target: Voltage-gated inwardly rectifying potassium channel KCNH2 (Homo sapiens, UniProt Q12809); assay: Inhibition of human ERG by electrophysiology based assay
[26] = Displacement of [3H]-GABA/[3]-muscimol from GABA gated chloride channel in Sprague-Dawley rat cortical synoptic membranes by liquid scintillation analysis
[27] = Thermodynamic solubility of compound in pH 7.4 PBS at 1 mg/ml incubated for 24 hrs under shaking condition by LC-MS/MS analysis; type: physicochemical; details: read-out: Therm_solubility
[28] = Fraction unbound in Beagle dog plasma by equilibrium dialysis based LC-MS analysis; type: ADME, cell-free, Canis lupus familiaris

Cytochrome P450 2C9, sequence (P11712 whole entry): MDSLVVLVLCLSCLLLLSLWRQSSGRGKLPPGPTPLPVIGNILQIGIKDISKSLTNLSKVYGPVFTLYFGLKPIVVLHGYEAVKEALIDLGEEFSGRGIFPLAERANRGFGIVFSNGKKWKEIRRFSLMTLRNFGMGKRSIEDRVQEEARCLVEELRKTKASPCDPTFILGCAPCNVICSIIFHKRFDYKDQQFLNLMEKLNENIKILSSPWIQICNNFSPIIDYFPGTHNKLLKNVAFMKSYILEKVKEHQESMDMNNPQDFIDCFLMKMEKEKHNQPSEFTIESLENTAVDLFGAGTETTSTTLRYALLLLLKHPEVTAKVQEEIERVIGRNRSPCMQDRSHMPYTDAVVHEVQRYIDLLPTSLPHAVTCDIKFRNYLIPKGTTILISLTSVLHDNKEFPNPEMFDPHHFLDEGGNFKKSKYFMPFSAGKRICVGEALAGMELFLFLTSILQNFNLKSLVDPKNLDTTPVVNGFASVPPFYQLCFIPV
Cytochrome P450 3A4, sequence (P08684 whole entry): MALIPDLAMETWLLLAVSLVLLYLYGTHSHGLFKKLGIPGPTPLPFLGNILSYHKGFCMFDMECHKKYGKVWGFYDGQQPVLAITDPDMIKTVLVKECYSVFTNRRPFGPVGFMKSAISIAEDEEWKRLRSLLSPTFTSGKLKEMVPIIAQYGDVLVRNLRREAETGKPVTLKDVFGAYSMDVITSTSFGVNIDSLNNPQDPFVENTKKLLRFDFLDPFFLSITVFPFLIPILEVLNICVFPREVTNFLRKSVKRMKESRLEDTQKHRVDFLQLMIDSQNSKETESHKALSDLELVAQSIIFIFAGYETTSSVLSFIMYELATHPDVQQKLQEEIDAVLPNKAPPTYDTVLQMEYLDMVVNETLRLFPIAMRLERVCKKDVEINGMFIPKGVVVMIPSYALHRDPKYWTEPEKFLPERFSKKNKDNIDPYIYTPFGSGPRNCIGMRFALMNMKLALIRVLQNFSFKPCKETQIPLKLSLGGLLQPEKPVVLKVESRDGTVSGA
Voltage-gated inwardly rectifying potassium channel KCNH2, sequence (Q12809 whole entry): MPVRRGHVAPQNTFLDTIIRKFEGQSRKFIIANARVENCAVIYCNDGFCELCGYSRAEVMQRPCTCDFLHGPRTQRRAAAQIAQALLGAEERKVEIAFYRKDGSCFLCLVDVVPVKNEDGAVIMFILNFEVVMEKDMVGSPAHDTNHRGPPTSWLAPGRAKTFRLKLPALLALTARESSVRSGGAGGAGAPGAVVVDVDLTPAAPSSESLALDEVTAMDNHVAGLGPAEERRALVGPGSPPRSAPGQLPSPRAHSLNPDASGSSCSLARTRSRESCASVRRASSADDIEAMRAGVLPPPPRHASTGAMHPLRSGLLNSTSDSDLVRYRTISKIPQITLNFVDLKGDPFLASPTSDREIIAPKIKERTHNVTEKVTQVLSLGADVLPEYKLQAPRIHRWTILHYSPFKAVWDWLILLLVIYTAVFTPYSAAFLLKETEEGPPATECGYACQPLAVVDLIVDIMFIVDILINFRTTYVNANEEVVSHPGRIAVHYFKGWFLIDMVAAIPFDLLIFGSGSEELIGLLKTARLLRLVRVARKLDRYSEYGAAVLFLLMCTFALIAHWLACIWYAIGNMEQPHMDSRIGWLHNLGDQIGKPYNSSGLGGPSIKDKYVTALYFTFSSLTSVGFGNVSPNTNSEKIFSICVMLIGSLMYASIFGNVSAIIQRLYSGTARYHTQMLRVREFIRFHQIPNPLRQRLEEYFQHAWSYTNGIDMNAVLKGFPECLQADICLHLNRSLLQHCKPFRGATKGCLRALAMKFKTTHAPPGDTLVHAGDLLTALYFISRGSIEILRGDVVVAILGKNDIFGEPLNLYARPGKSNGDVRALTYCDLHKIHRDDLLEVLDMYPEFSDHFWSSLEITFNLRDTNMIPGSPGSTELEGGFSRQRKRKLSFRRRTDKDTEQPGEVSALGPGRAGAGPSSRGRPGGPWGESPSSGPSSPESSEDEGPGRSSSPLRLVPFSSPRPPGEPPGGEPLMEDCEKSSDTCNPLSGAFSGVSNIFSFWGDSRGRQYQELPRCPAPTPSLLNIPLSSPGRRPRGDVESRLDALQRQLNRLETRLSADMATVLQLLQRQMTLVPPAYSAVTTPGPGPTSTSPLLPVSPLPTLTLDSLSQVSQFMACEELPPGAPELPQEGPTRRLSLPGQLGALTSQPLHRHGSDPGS
Cytochrome P450 2C19, sequence (P33261 whole entry): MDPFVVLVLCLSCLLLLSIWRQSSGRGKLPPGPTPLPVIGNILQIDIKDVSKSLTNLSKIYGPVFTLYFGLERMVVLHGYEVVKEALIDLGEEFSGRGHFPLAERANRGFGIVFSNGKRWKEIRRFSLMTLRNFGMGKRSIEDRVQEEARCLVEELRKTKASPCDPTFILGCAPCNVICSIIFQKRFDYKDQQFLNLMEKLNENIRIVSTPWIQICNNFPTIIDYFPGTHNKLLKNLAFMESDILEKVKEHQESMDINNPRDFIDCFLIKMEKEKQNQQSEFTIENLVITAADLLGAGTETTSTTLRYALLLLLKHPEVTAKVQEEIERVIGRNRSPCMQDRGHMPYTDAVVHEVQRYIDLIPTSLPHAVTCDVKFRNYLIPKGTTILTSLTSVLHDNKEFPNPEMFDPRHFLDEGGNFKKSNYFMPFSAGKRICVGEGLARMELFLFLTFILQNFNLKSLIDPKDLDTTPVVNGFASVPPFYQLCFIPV
Cytochrome P450 2D6, sequence (P10635 whole entry): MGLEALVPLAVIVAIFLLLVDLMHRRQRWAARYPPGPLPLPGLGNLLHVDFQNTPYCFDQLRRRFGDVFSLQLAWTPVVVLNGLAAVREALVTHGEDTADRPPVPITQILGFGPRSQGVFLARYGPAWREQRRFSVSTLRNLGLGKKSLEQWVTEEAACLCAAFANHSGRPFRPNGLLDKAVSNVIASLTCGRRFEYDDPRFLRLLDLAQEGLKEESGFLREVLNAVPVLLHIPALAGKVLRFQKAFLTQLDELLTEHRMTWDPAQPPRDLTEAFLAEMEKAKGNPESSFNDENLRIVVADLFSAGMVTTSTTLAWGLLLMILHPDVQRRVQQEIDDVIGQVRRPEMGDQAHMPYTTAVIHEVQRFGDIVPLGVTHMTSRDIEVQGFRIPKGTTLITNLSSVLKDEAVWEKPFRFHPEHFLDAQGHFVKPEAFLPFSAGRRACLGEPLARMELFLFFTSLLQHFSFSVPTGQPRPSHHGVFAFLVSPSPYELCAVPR

IC50 (Leukotriene C4 synthase): < 5 µM | inhibition [1]: Active | inhibition [2]: Active
Structure (SMILES): CC(C)(O)c1ccccc1CC[C@@H](SCC1(CC(=O)O)CC1)c1cccc(/C=C/c2ccc3ccc(Cl)cc3n2)c1 [MONTELUKAST]

IC50 (Cytochrome P450 1A2): > 20 µM | clearance [3]: 2.4 mL/min/kg | fraction unbound [4]: 0.0066 | IC50 (Cytochrome P450 2D6): > 20 µM | fraction unbound [5]: 0.0062 | IC50 (Cytochrome P450 2C9): > 20 µM | clearance [6]: 12 mL/min/kg | Vd [7]: 2.8 L/kg | hepatocyte CLint at 1 µM [8]: 5 µL/min/1e6 cells | half-life [9]: 162 min | IC50 (Cytochrome P450 3A4): > 20 µM | IC50 (Cytochrome P450 2C19): > 20 µM | bioavailability [13]: 91% | logD [15]: 2.4 | Papp A→B [16]: 105 ×10⁻⁶ cm/s | INH [17]: 0.6 µM | bioavailability [19]: 46% | half-life [20]: 288 min | Vd [23]: 1.1 L/kg | IC50 [26]: 74 nM | solubility thermodynamic at 24 h [27]: 576 µM (≈ 260 µg/mL) | fraction unbound [28]: 0.0021
Structure (SMILES): COc1cc(N(CC2CC2)c2ccc(Cl)c3ccccc23)cnc1C(=O)[C@H]1C[C@@H]1C(=O)O
AUC [10]: 1830 µM·h | AUC [11]: 200 µM·h | Activity [12]: Toxic | Activity [14]: Toxic | Activity [18]: Toxic | Cmax at […] [21]: 47 µM | fEC50 (Rattus norvegicus): 7.5 nM | Activity [22]: Toxic | Cmax at […] [24]: 144 µM | inhibition (INH) [25]: Not Active
